This is an account of results in patent US9346761B2, “Arginine methyltransferase inhibitors and uses thereof” (Epizyme, Inc., priority 2013, dated 2016).

For assay [1], the target named is T1, Full-length human PRMT3 (Homo sapiens, UniProt O60678).
T1 construct: GST-tagged PRMT3; made in house; host or cells: E. coli BL21(DE3) Gold (pGEX-KG)
The assay is described as follows: PRMT3 biochemical assay (3H-SAM Flashplate, peptide substrate). From the text: General Materials. S-adenosylmethionine (SAM), S-adenosylhomocysteine (SAH), bicine, Tween20, dimethylsulfoxide (DMSO), bovine skin gelatin (BSG),), isopropyl-β-D-thiogalactopyranoside (IPTG), and Tris(2-carboxyethyl)phosphine hydrochloride solution (TCEP) were purchased from Sigma-Aldrich at the highest level of purity possible. ^3H-SAM was purchase from American Radiolabeled Chemicals with a specific activity of 80 Ci/mmol. 384-well streptavidin Flashplates were purchased from PerkinElmer.
Substrates. Peptide containing the classic RMT substrate motif was synthesized with an N-terminal linker-affinity tag motif and a C-terminal amide cap by 21st Century Biochemicals. The peptide was purified by high-performance liquid chromatography (HPLC) to greater than 95% purity and confirmed by liquid chromatography mass spectrometry (LC-MS). The sequence was Biot-Ahx-[…]-amide (SEQ ID NO.:11).
Molecular Biology: : Full-length human PRMT3 (NM_005788.3) isoform 1 transcript clone was amplified from an HEK 293 cDNA library and subcloned into pGEX-KG (GE Life Sciences). The resulting construct encodes an N-terminal GST tag and a thrombin cleavage sequence ([…] […] […] […]) (SEQ ID NO.:12) fused directly to Cys 2 of PRMT3.
Protein Expression. E. coli (BL21(DE3) Gold, Stratagene) made competent by the CaCl2 method were transformed with the PRMT3 construct and ampicillin selection. Protein over-expression was accomplished by growing the PRMT3 expressing E. coli clone and inducing expression with 0.3 mM IPTG at 16° C. The culture was grown for 12 hours, harvested by centrifugation, and stored at −80° C. for purification.
Protein Purification. […] GST-tagged PRMT3 eluted with 25-400 mM phosphate in buffer C. Protein was concentrated and buffer was exchanged to 20 mM Tris, 150 mM NaCl, 5% glycerol, 5 mM β-mercaptoethanol, pH7.8 by ultrafiltration. The purity of recovered protein was 70%.
General Procedure for PRMT3 Enzyme Assays on Peptide Substrates. The assays were all performed in a buffer consisting of 20 mM Bicine (pH=7.6), 1 mM TCEP, 0.005% BSG, and 0.002% Tween 20, prepared on the day of use. Compounds in 100% DMSO (1 ul) were spotted into a polypropylene 384-well V-bottom plates (Greiner) using a Platemate Plus outfitted with a 384-channel head (Thermo Scientific). DMSO (1 ul) was added to Columns 11, 12, 23, 24, rows A-H for the maximum signal control and 1 ul of SAH, a known product and inhibitor of PRMT3, was added to columns 11, 12, 23, 24, rows I-P for the minimum signal control. A cocktail (40 ul) containing the PRMT3 enzyme was added by Multidrop Combi (Thermo-Fisher). The compounds were allowed to incubate with PRMT3 for 30 min at room temperature, then a cocktail (10 ul) containing SAM and peptide was added to initiate the reaction (final volume=51 ul). The final concentrations of the components were as follows: PRMT3 was 0.5 nM, ^3H-SAM was 100 nM, non-radiolabeled SAM was 1.8 uM, peptide was 330 nM, SAH in the minimum signal control wells was 1 mM, and the DMSO concentration was 2%. The assays were stopped by the addition of potassium chloride (10 ul) to a final concentration of 100 mM. 50 ul of the reaction in the 384-well polypropylene plate was then transferred to a 384-well Flashplate and the biotinylated peptides were allowed to bind to the streptavidin surface for at least 1 hour before being washed once with 0.1% Tween20 in a Biotek ELx405 plate washer. The plates were then read in a PerkinElmer TopCount plate reader to measure the quantity of ^3H-labeled peptide bound to the Flashplate surface, measured as disintegrations per minute (dpm) or alternatively, referred to as counts per minute (cpm).
Where dpm=disintegrations per minute, cmpd=signal in assay well, and min and max are the respective minimum and maximum signal controls.
Where top and bottom are the normally allowed to float, but may be fixed at 100 or 0 respectively in a 3-parameter fit. […]

For assay [2], the system named is mono-methyl arginine in RKO cells. The assay is described as follows: RKO methylation assay, In Cell Western for mono-methyl arginine and DNA content. The following applies: Homo sapiens. The assay is classed as cell-based.
[3] abbreviates: In Cell Western, RKO cells, 72 hours, percent activation of mono-methyl arginine signal, read-out: EC30.

Each structure is given as a SMILES string. Read-outs that look alike come from different tables or passages of the source. Bounds are passed on as bounds.

T1 sequence (O60678 with tags, fused parts or gaps): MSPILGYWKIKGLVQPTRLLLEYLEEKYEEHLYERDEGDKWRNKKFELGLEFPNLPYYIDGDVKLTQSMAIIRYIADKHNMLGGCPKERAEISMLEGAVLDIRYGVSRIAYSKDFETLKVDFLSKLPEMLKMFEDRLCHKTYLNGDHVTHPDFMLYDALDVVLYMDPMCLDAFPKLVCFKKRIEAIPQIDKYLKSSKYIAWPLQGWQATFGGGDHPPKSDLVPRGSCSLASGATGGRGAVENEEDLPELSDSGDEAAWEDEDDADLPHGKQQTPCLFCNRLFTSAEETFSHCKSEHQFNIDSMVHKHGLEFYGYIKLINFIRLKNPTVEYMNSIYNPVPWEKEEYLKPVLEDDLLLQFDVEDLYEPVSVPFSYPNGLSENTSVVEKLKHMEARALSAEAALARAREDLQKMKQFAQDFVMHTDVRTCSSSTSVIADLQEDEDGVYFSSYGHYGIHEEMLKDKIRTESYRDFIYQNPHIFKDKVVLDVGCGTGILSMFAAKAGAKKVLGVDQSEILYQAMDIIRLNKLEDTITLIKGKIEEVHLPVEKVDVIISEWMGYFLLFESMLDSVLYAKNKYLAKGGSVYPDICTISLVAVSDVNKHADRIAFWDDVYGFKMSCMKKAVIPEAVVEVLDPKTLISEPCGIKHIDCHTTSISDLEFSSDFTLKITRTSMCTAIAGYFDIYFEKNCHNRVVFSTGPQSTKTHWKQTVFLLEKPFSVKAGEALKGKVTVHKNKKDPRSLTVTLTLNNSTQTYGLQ

By IC50 is commonly meant the concentration at which inhibition is half-maximal. By EC30 is commonly meant the concentration needed for an effect of 30%. `CN(CCN)Cc1c[nH]nc1-c1ccc(C(F)(F)F)cc1F` [Compound 148] gave a half-inhibitory concentration (IC50) in assay [1] of more than 10 µM. Further, the EC30 in assay [2] (setting [3]) lay within 3.01 to 12 µM.
Regarding `CN(CCN)Cc1cnn(CC(O)CO)c1-c1ccc(F)cc1` (centres unmarked) [Compound 113], in assay [1], the IC50 is more than 10 µM. In addition, the EC30 in assay [2] (setting [3]) is more than 12 µM.
Consider `CCN(CC)C(=O)c1ccc(-c2n[nH]cc2CN(C)CCN)cc1` [Compound 143], for which the IC50 in assay [1] fell in the range of 3.01 to 10 µM. Further, the concentration for an effect of 30% (EC30) in assay [2] (setting [3]) was more than 12 µM.
`CN(CCN)Cc1c[nH]nc1-c1ccc(C2CCOCC2)cc1` [Compound 98] displayed a half-maximal inhibitory concentration (IC50) in assay [1] of 0.101 to 1 µM. Also, the EC30 in assay [2] (setting [3]) was less than 3 µM.
`CN(CCN)Cc1c[nH]nc1-c1ccc(C(F)(F)F)c(F)c1` [Compound 141] showed a half-maximal inhibitory concentration (IC50) in assay [1] of 3.01 to 10 µM. Further, in assay [2] (setting [3]), the 30% effect concentration (EC30) was less than 3 µM.
In assay [1], `CN(CCN)Cc1c[nH]nc1-c1cc(F)cc(Cl)c1` [Compound 121] showed an IC50 of 1.01 to 3 µM. Besides, the 30% effect concentration (EC30) in assay [2] (setting [3]) is less than 3 µM.
Turning to `COc1ccccc1-c1n[nH]cc1CN(C)CCN` [Compound 109], the IC50 in assay [1] was more than 10 µM. Besides, in assay [2] (setting [3]), the EC30 was more than 12 µM.
On to `Cc1c(F)cccc1-c1n[nH]cc1CN(C)CCN` [Compound 129], for which, in assay [1], the IC50 lay within 3.01 to 10 µM. In addition, the EC30 in assay [2] (setting [3]) is 3.01 to 12 µM.
The like results for `Cc1ccc(-c2n[nH]cc2CN(C)CCN)c(F)c1` [Compound 108] were, in that order, 3.01 to 10 µM and more than 12 µM.
Molecule `CC(C)c1ccc(-c2c[nH]nc2CN(C)CCN)cc1` [Compound 101] returned a half-maximal inhibitory concentration (IC50) in assay [1] of more than 10 µM. This molecule displayed a 30% effect concentration (EC30) in assay [2] (RKO, 72 h) of 3.01 to 12 µM.
Regarding `CN(CCN)Cc1c[nH]nc1-c1ccc(Cl)cc1F` [Compound 132], the concentration for half-maximal inhibition (IC50) in assay [1] lay in the range of 3.01 to 10 µM. In assay [2] (RKO, 72 h), the EC30 is less than 3 µM.
In the case of `CCNC(=O)c1ccc(-c2n[nH]cc2CN(C)CCN)cc1` [Compound 136], the concentration for half-maximal inhibition (IC50) in assay [1] is more than 10 µM. Further, the EC30 in assay [2] (setting [3]) was more than 12 µM.
`CN(CCN)Cc1c[nH]nc1-c1cc(C#N)ccc1Cl` [Compound 147] had an IC50 in assay [1] of more than 10 µM. For the same molecule, the EC30 in assay [2] (setting [3]) is more than 12 µM.
In assay [1], `COCCOc1ccc(-c2n[nH]cc2CN(C)CCN)cc1` [Compound 167] gave a concentration for half-maximal inhibition (IC50) of 3.01 to 10 µM. Moreover, the 30% effect concentration (EC30) in assay [2] (setting [3]) was less than 3 µM.
`CN(CCN)Cc1n[nH]cc1-c1ccc(C#N)cc1` [Compound 100] registered a concentration for half-maximal inhibition (IC50) in assay [1] of 3.01 to 10 µM. The 30% effect concentration (EC30) in assay [2] (setting [3]) was less than 3 µM.
On to `CN(CCN)Cc1n[nH]cc1-c1ccc(OC2CC2)cc1` [Compound 119], for which the 50% inhibitory concentration (IC50) in assay [1] was 3.01 to 10 µM. The concentration for an effect of 30% (EC30) in assay [2] (setting [3]) lay in the range of 3.01 to 12 µM.
In turn, `COc1cc(-c2n[nH]cc2CN(C)CCN)ccc1F` [Compound 142] had a half-inhibitory concentration (IC50) in assay [1] of 3.01 to 10 µM. Moreover, the 30% effect concentration (EC30) in assay [2] (setting [3]) is less than 3 µM.
For `CN(CCN)Cc1c[nH]nc1-c1ccc(OCCN2CCOCC2)cc1` [Compound 172], in that order: 3.01 to 10 µM and more than 12 µM.
The like results for `COc1cccc(-c2n[nH]cc2CN(C)CCN)c1` [Compound 130] were, in that order, 3.01 to 10 µM and 3.01 to 12 µM.
In assay [1], `CN(CCN)Cc1c[nH]nc1-c1cccc(N(C)C)c1` [Compound 149] displayed an IC50 of 3.01 to 10 µM. Also, the 30% effect concentration (EC30) in assay [2] (setting [3]) is 3.01 to 12 µM.
`COc1ccc(-c2n[nH]cc2CN(C)CCN)cc1Cl` [Compound 125]: the concentration for half-maximal inhibition (IC50) in assay [1] was in the range of 3.01 to 10 µM. This molecule registered an EC30 in assay [2] (RKO, 72 h) of less than 3 µM.
Take `NCCN(CCO)Cc1c[nH]nc1-c1ccc(F)cc1` [Compound 171]: the IC50 in assay [1] is more than 10 µM. In addition, the concentration for an effect of 30% (EC30) in assay [2] (setting [3]) was more than 12 µM.
Take `Cc1ccc(-c2n[nH]cc2CN(C)CCN)cc1Cl` [Compound 126]: in assay [1], the IC50 lay within 1.01 to 3 µM. Also, the EC30 in assay [2] (setting [3]) was less than 3 µM.
In assay [1], `CN(CCN)Cc1c[nH]nc1-c1cc(Cl)cc(Cl)c1` [Compound 137] gave an IC50 of 3.01 to 10 µM. Besides, the 30% effect concentration (EC30) in assay [2] (setting [3]) was in the range of 3.01 to 12 µM.
`CN(CCN)Cc1n[nH]cc1-c1ccc(C(F)(F)F)cc1` [Compound 103] had an IC50 in assay [1] of more than 10 µM. For the same molecule, the EC30 in assay [2] (setting [3]) fell in the range of 3.01 to 12 µM.
The molecule `CN(CCN)Cc1c[nH]nc1-c1ccc(C2CC2)cc1` [Compound 116] came in with an IC50 in assay [1] of 1.01 to 3 µM. Moreover, in assay [2] (setting [3]), the EC30 is less than 3 µM.
`Cc1ccc(C#N)cc1-c1n[nH]cc1CN(C)CCN` [Compound 158] returned an IC50 in assay [1] of more than 10 µM. Moreover, the concentration for an effect of 30% (EC30) in assay [2] (setting [3]) was more than 12 µM.
For the molecule `CC(O)c1ccc(-c2n[nH]cc2CN(C)CCN)cc1` (centres unmarked) [Compound 115], the IC50 in assay [1] fell in the range of 3.01 to 10 µM. For the same molecule, the EC30 in assay [2] (setting [3]) was more than 12 µM.
In turn, `CN(CCN)Cc1cn(CC2CCOCC2)nc1-c1ccc(F)cc1` [Compound 128] had an IC50 in assay [1] of more than 10 µM. In addition, the EC30 in assay [2] (setting [3]) is more than 12 µM.
For `COc1cc(Cl)cc(-c2n[nH]cc2CN(C)CCN)c1` [Compound 127], the concentration for half-maximal inhibition (IC50) in assay [1] lay within 3.01 to 10 µM. Also, in assay [2] (setting [3]), the EC30 was 3.01 to 12 µM.
Take `CN(CCN)Cc1c[nH]nc1-c1cc(Cl)ccc1F` [Compound 156]: in assay [1], the IC50 was more than 10 µM. In addition, the 30% effect concentration (EC30) in assay [2] (setting [3]) lay within 3.01 to 12 µM.
